Counter-ions that a name gives are not always drawn.
Legend:
[1] = molecular target: T1, recombinant human α1D receptor (Homo sapiens, UniProt P25100); experiment: Adrenergic α1D selectivity binding assay ([3H]-prazosin); details: inhibition of [3H]-prazosin (0.3 nM) binding, HEK293 membranes; read-out: α1 bind pIC50 (converted)
T1 construct: expressed in transfected cells; host or cells: HEK293
T1 sequence (P25100 1-572): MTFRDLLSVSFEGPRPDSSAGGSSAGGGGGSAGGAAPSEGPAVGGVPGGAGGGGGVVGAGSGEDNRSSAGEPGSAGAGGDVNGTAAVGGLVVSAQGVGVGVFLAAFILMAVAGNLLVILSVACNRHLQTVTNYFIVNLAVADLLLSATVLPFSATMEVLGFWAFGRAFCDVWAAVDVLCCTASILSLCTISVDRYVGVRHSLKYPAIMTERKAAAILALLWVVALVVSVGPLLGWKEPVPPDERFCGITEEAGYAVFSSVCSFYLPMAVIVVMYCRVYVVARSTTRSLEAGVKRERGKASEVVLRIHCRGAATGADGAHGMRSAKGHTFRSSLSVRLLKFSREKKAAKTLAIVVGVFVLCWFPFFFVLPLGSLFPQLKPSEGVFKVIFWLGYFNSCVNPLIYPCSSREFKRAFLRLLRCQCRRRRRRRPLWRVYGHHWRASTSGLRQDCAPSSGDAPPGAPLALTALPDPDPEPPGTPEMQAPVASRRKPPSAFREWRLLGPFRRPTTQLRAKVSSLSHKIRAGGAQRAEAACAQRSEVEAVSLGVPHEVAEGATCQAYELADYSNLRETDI
Method in brief: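 HEK293 membranes with recombinant human α1D receptor incubated 2 h at room temperature with 0.3 nM [3H]-prazosin and compound in 50 mM HEPES, 1 mM EDTA, 0.1% gelatin, pH 7.4; BMY7378 (10 μM) defined non-specific binding. Filter-bound radioactivity counted; pIC50 from four-parameter logistic fit.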

[2] = molecular target: T2, recombinant human adrenergic beta 1 receptors (Homo sapiens, UniProt P08588); experiment: Adrenergic β1 selectivity binding assay ([125I]-Iodocyanopindolol); details: inhibition of [125I]-Iodocyanopindolol (0.036 nM) binding; read-out: β1 bind p IC50 (converted)
T2 construct: purchased Euroscreen
Method in brief: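 Recombinant human β1 membranes in HEPES buffer pH 7.4 with 120 mM NaCl were incubated 2 hours at room temperature with 0.036 nM [^125I]-Iodocyanopindolol. Nonspecific binding defined by 10 μM propranolol; bound radioactivity counted after filtration. pIC50 from four-parameter logistic fit.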

[3] = molecular target: T3, recombinant human Dopamine Subtype D2s receptors (Homo sapiens, UniProt P14416); experiment: Dopamine D2 selectivity binding assay ([3H]-spiperone); details: inhibition of [3H]-spiperone (0.16 nM) binding; read-out: D2 bind pIC50 (converted)
T3 construct: purchased Perkin Elmer
Method in brief: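 Recombinant human D2s membranes incubated 2 h at room temperature with 0.16 nM [3H]-spiperone in HEPES/EDTA/NaCl/gelatin buffer, pH 7.4; 10 μM haloperidol defined non-specific binding. Filter-bound radioactivity counted after cold washes. pIC50 from 4-parameter logistic fit of NSB-corrected specific binding.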

T3 sequence (P14416 1-414 isoform P14416-2): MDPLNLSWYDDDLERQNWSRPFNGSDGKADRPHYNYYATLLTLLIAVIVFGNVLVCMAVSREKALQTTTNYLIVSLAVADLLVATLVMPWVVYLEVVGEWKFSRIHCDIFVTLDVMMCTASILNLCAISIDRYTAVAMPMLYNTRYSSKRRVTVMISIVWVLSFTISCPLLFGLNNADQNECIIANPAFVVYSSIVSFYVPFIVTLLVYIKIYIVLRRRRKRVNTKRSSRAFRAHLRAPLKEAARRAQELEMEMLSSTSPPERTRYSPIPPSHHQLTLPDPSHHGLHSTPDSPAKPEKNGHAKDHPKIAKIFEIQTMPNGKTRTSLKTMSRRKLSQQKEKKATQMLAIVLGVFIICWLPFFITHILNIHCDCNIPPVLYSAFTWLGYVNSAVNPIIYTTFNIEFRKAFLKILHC
T2 sequence (P08588 whole entry): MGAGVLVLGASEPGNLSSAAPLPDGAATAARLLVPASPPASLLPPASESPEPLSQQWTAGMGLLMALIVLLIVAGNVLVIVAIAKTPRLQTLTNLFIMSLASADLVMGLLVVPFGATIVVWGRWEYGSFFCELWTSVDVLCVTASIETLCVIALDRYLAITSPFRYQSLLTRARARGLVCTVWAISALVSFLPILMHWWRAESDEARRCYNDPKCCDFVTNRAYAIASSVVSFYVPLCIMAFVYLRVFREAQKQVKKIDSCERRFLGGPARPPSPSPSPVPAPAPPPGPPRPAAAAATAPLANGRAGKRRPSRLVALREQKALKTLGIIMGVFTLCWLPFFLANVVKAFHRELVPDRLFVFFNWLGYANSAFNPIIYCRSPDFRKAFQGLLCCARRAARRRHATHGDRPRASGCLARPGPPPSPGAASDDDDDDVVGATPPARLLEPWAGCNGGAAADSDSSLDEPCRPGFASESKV

SMILES | IC50 [1] [µM] | IC50 [2] [µM] | IC50 [3] [µM]
CC1(C)CCC(N(CCNCCc2ccc(O)c3[nH]c(=O)sc23)C(=O)CCNCCc2cccc(O)c2)CC1 [Example 91, N^1-(4,4-Dimethylcyclohexyl)-N^1-(2-{[2-(4-hydroxy-2-oxo-2,3-dihydro-1,3-benzothiazol-7-yl)ethyl]amino}ethyl)-N^3-[2-(3-hydroxyphenyl)ethyl]-β-alaninamide bis-trifluoroacetic acid salt] | 0.126 | 3.98 | 0.0398
COc1ccc(CCNCCC(=O)N(CCNCCc2ccc(O)c3[nH]c(=O)sc23)C2CCCCCC2)cc1OC [Example 86, N^1-Cycloheptyl-N^3-[2-(3,4-dimethoxyphenyl)ethyl]-N^1-(2-{[2-(4-hydroxy-2-oxo-2,3-dihydro-1,3-benzothiazol-7-yl)ethyl]amino}ethyl)-β-alaninamide bis-trifluoroacetic acid salt] | 0.251 | 2.51 | 0.2
O=C(CCNCCc1ccccc1)N(CCNCCc1ccc(O)c2[nH]c(=O)sc12)C1CCC(F)(F)CC1 [Example 4, N-(4,4-Difluorocyclohexyl)-N-(2-{[2-(4-hydroxy-2-oxo-2,3-dihydro-1,3-benzothiazol-7-yl)ethyl]amino}ethyl)-N^3-(2-phenylethyl)-β-alaninamide bis-trifluoroacetic acid salt] | 0.2 | 2.51 | 2
O=C(CCNCCc1ccccc1)N(CCNCCc1ccc(O)c2[nH]c(=O)sc12)C1CCCCC1 [Example 5, N-Cyclohexyl-N-(2-{[2-(4-hydroxy-2-oxo-2,3-dihydro-1,3-benzothiazol-7-yl)ethyl]amino}ethyl)-N^3-(2-phenylethyl)-β-alaninamide bis-trifluoroacetic acid salt] | 0.1 | 5.01 | 0.398
O=C(CCNCCc1cccc(O)c1)N(CCNCCc1ccc(O)c2[nH]c(=O)sc12)C1CCCCCCC1 [Example 90, N^1-Cyclooctyl-N^1-(2-{[2-(4-hydroxy-2-oxo-2,3-dihydro-1,3-benzothiazol-7-yl)ethyl]amino}ethyl)-N^3-[2-(3-hydroxyphenyl)ethyl]-β-alaninamide bis-trifluoroacetic acid salt] | 0.0631 | 0.2 | 0.0794
O=C(CCNCCc1ccc(O)c(Cl)c1)N(CCNCCc1ccc(O)c2[nH]c(=O)sc12)C1CCCCC1 [Example 89, N^3-[2-(3-chloro-4-hydroxyphenyl)ethyl]-N^1-cyclohexyl-N^1-(2-{[2-(4-hydroxy-2-oxo-2,3-dihydro-1,3-benzothiazol-7-yl)ethyl]amino}ethyl)-β-alaninamide bis-trifluoroacetic acid salt] | 0.0501 | 3.16 | 0.0794
O=C(CCNCCc1ccc2c(c1)OCCO2)N(CCNCCc1ccc(O)c2[nH]c(=O)sc12)C1CCCCCC1 [Example 88, N-Cycloheptyl-N^3-[2-(2,3-dihydro-1,4-benzodioxin-6-yl)ethyl]-N^1-(2-{[2-(4-hydroxy-2-oxo-2,3-dihydro-1,3-benzothiazol-7-yl)ethyl]amino}ethyl)-β-alaninamide bis-trifluoroacetic acid salt] | 0.251 | 6.31 | 0.0794
Cc1cccc(CCNCCC(=O)N(CCNCCc2ccc(O)c3[nH]c(=O)sc23)C2CCCCCC2)c1 [Example 85, N^1-Cycloheptyl-N^1-(2-{[2-(4-hydroxy-2-oxo-2,3-dihydro-1,3-benzothiazol-7-yl)ethyl]amino}ethyl)-N^3-[2-(3-methylphenyl)ethyl]-β-alaninamide bis-trifluoroacetic acid salt] | 0.0501 | 2.51 | 0.0794
O=C(CCNCCc1ccc(O)c2[nH]c(=O)sc12)N(CCNCCc1ccc(O)c2[nH]c(=O)sc12)C1CCCCCC1 [Example 87, bis-trifluoroacetic acid salt] | 0.251 | 0.794 | 0.0398
